The nature of data set [1]: Viscosity imparting test in nonaqueous formulation (polymer compound solubility and viscosity). The format is physicochemical. As to conditions: 25° C. How it is done: With respect to each solvent of propylene glycol and glycerin, polymer compounds shown in Table 5 and Table 6 were added to prepare mixed solutions. Each concentration of the polymer compounds was designed in consideration of the molecular weight and the like. […] Separately, the viscosity of the mixed solution or the solution after the stirring was determined with a micron sample viscometer at 25° C.

Data set [2] is described as follows: Viscosity measurement of octreotide acetate physiologically active composition (micron sample viscometer). The format is physicochemical. The settings on record: 25° C. The method, then: The octreotide acetate concentration and the propylene glycol or glycerin concentration were adjusted as shown in Table 3 and Table 4 to prepare a physiologically active composition. The viscosity of the obtained physiologically active composition was measured ten times with a micron sample viscometer (RHEOSENSE INC., Micron Sample-Viscometer/Rheometer-on-a-chip VROCTM), and the mean value was calculated to be shown in Table 3 and Table 4.

The source of these data is patent publication US20130041330A1, “MICRO-NEEDLE DEVICE AND PREPARATION METHOD” (HISAMITSU PHARMACEUTICAL CO., INC., priority 2010, published 2013).

In the case of Protamine, the Viscosity in data set [1] (glycerin, additive concentration 0.5 % by mass) is on record as 1,442 mPa · s; in data set [1] (propylene glycol, additive concentration 1.0 % by mass), 53 mPa · s.

For the compound `C[C@@H](O)[C@@H]1NC(=O)[C@H](CCCCN)NC(=O)[C@@H](Cc2c[nH]c3ccccc23)NC(=O)[C@H](Cc2ccccc2)NC(=O)[C@@H](NC(=O)[C@H](N)Cc2ccccc2)CSSC[C@@H](C(=O)N[C@H](CO)[C@@H](C)O)NC1=O` [Octreotide acetate], the “Viscosity Avg.” value is 2,900 cps in data set [2] (octreotide acetate 20 / glycerin 80 % by weight); 200 cps in data set [2] (octreotide acetate 20 / propylene glycol 80 % by weight); 9,000 cps in data set [2] (octreotide acetate 30 / glycerin 70 % by weight); 12,000 cps in data set [2] (octreotide acetate 35 / glycerin 65 % by weight); 15,000 cps in data set [2] (octreotide acetate 40 / glycerin 60 % by weight); 1,600 cps in data set [2] (octreotide acetate 40 / propylene glycol 60 % by weight). Moreover, the “Viscosity Avg.” value in data set [2] (octreotide acetate 50 / glycerin 50 % by weight) was 21,000 cps; in data set [2] (octreotide acetate 50 / propylene glycol 50 % by weight) it was 5,400 cps; in data set [2] (octreotide acetate 60 / glycerin 40 % by weight), 27,000 cps; in data set [2] (octreotide acetate 60 / propylene glycol 40 % by weight) it was 15,000 cps; in data set [2] (octreotide acetate 70 / propylene glycol 30 % by weight), 45,000 cps; in data set [2] (octreotide acetate 80 / propylene glycol 20 % by weight) it was 133,000 cps.
